# Experiments:
# [1] = Inhibition of c-Met-mediated migration in HGF-stimulated human A549 cells by wound healing assay
# [2] = Inhibition of c-Met-mediated scattering in HGF-stimulated human DU145 cells
compound,measurement,setting,value
"CCn1cnc(-c2cc3nccc(Oc4ccc(NC(=O)N5CCN(c6ccc(F)cc6)C5=O)cc4F)c3s2)c1 [N-(4-(2-(1-ethyl-1H-imidazol-4-yl)thieno[3,2-b]pyridin-7-yloxy)-3-fluorophenyl)-3-(4-fluorophenyl)-2-oxoimidazolidine-1-carboxamide]",IC50,[1],240 nM
same,IC50,[2],80 nM

# From BindingDB's records for doi:10.1016/j.bmcl.2009.01.068 (Methylgene, 2009)
